Entries after “also recorded” stand apart in the source; their conditions may differ. Where two headings read alike, the source gives them in different places.
Experiments:
CL97-L2G cells = experiment: Bulk lung tumor model, bioluminescent imaging; format: in vivo, NOD/SCID mice; conditions: 4 weeks; trifluoperazine 5 mg/kg/day i.p.; gefitinib 150 mg/kg/day oral gavage; combination trifluoperazine 5 mg/kg/day i.p. + gefitinib 100 mg/kg/day oral
Experimental: For bulk lung tumor model, CL97-[…] cells were intravenously administered into the animals via tail vein at a concentration of 1×10^6 cells/100 μl PBS. One week post tumor injection, different treatment regimens were started. […] CL97-[…]-bearing mice (both bulk lung tumor and CSC models) were imaged weekly using the IVIS 200 system (Caliper Life Sciences). Data are expressed as fold change in total photon flux/initial total photon flux and were analyzed using Living Image 1.0 software (Caliper Life Sciences). Mice were humanely sacrificed at the end of experiments and lung tumor biopsies were obtained for further analysis.

CL97 spheroids [1] = experiment: Tumor spheroid assay; format: cell-based, human; conditions: 48 hr
CL141 cells = experiment: Annexin V/PI staining apoptosis analysis; format: cell-based, human; conditions: 48 hours, versus control cells
Experimental: […]. Annexin V/PI staining was performed after treatment with different dosages of trifluoperazine. Both early and late apoptotic cells were counted.

A549 cells = experiment: MTT assay (cell viability); format: cell-based, human; conditions: Homo sapiens
Source text: In addition to the commonly used cell lines (A549 and H1975), we also established several cell lines including CL83, CL141, CL152, CL25, and CL97 cell lines which were isolated from the pleural effusion of NSCLC patients at the National Taiwan University Hospital. The investigation was approved by the Institutional Review Board of the National Taiwan University Hospital. Informed consent was obtained before pleural effusion was collected.

CL141 spheroids = experiment: Tumor spheroid assay; format: cell-based, human; conditions: 48 hr
CL97-L2G tumor samples = experiment: Protein profiles of tumor biopsies (Western blot); format: in vivo, NOD/SCID mice; conditions: tumor biopsies of treated mice
Experimental: Total cell lysates were harvested from tumor biopsies of mice which received different treatments and their protein profiles were examined.
(§1) Cells were lysed in lysis buffer (50 mM Tris-HCl, pH 7.4, 5 mM MgCl2, 1% Nonidet P-40, 150 mM NaCl, 1 mM phenylmethylsulfonyl fluoride). Total protein was isolated and subjected to SDS polyacrylamide gel electrophoresis and electrotransfered onto PVDF membranes (Millipore). Primary antibodies Bax, Bak, Bcl-2, XIAP, Mcl-1, Cleaved Caspase 9, Caspase 3, […], c-Myc, CD44, cyclin D1 were obtained from Cell Signaling, Met was purchased from Santa Cruz and CD133 was from Miltenyi Biotec, and secondary antibodies for anti-mouse and anti-rabbit horseradish preoxidase (HRP)-conjugation were from Chemicon International. The protein detection was performed with enhanced chemiluminescence (ECL™) method captured by a Luminescence Imaging System (LAS-4000™, Fuji Photo Film Co., Ltd).
. […] CL97-L2G-bearing mice (both bulk lung tumor and CSC models) were imaged weekly using the IVIS 200 system (Caliper Life Sciences). Data are expressed as fold change in total photon flux/initial total photon flux and were analyzed using Living Image 1.0 software (Caliper Life Sciences). Mice were humanely sacrificed at the end of experiments and lung tumor biopsies were obtained for further analysis.

CL83 spheroids = experiment: Tumor spheroid assay; format: cell-based, human; conditions: 48 hr
CL97 spheroids [2] = experiment: Western blotting analysis of cancer spheroids; format: cell-based, human
Experimental: as §1

CN1CCN(CCCN2c3ccccc3Sc3ccc(C(F)(F)F)cc32)CC1 [Trifluoperazine]
tumor burden (fold change in bioluminescence intensity) (CL97-L2G cells): significantly reduced tumor burden; also recorded: significantly lower tumor burden
size and number of spheroids (CL97 spheroids [1]): dose-dependently decreased
Annexin V-positive cells (CL141 cells): dose-dependent increase
IC50 (A549 cells; A549 cell line, read-out: IC50 for trifluoperazine): > 10 µM
IC50 (A549 cells; A549 cells, read-out: MTT assay (IC50)): > 10 µM
size and number of spheroids (CL141 spheroids): dose-dependently decreased
Cyclin D1 expression in tumor samples (CL97-L2G tumor samples): suppressed
activated form of caspase 3 in tumor samples (CL97-L2G tumor samples): increased
size and number of spheroids (CL83 spheroids): dose-dependently decreased
Bax, Bak, cleaved PARP, caspase-3 and caspase-9 levels (CL97 spheroids [2]; CL97 cancer spheroids): increased dose-dependently
anti-apoptotic Bcl-2, XIAP and Mcl-1 levels (CL97 spheroids [2]; CL97 cancer spheroids): decreased
CD44 and CD133 expression (CL97 spheroids [2]; CL97 spheroids, 0, 2.5, 5 and 10 μM, 48 hours): dose-dependently down-regulated
Cyclin D1, c-Myc and c-Met expression (CL97 spheroids [2]; CL97 spheroids, 48 hr): decreased

Source: US20140294994A1, “PHARMACEUTICAL COMPOSITION FOR ELIMINATION OF CANCER STEM CELLS” (priority 2011, published 2014)
